One experiment concerns SIPK. The following applies: Zhang & Klessig, 1997; cited from earlier work.
The test system of experiment [1] is WIPK-encoded 44-kD kinase. Nature of the experiment: Phosphatase treatment of protein extracts, then in-gel kinase activity assay. The experiment is classed as biochemical, tobacco. The conditions noted are these: okadaic acid 1 μM; Na3VO4 1 mM. As to the method:
(§1) In-gel kinase activity assay. The in-gel kinase activity assay was performed as described previously (zhang & Klessig, 1997). The relative kinase activity were quantitated using a PhosphorImager (Molecular Dynamics Inc., Sunnyvale, Calif.) and normalized to the level present at the zero time point for the 48-kD kinase, which was given a value of 1.
(§2) Treatment of protein extracts with phosphatases. Protein extracts were prepared in the absence of phosphatase inhibitors from TMV-infected leaves at 8 hr after shifting plants from 32° C. to 22° C. or 48 hr after infection at 22° C. Samples containing 20 μg of protein were treated with either the serine/threonine-specific phosphatase, PP-2A1 (0.25 units in 30 μL; Upstate Biotechnology, Lake Placid, N.Y.), or the tyrosine-specific protein phosphatase, YOP (2 units in 30 μL; NEB), for 20 min at 30° C. in the presence or absence of a phosphatase inhibitor. The PP-2A1 inhibitor, okadaic acid, and YOP inhibitor, Na3VO4 were used at a concentration of 1 μM and 1 mM, respectively. After phosphatase treatment, kinase activity was detected by the in-gel kinase activity assay.

The subject of another experiment is 48-kD SIPK. The description is as above. The experiment is classed as biochemical, tobacco. The conditions noted are these: okadaic acid 1 μM; Na3VO4 1 mM. As to the method: as §1, §2
A further experiment has as its system His-tagged WIPK protein. Nature of the experiment: Immunoblot analysis of Ab-p44N against a panel of His-tagged MAP kinases. The format is binding, tobacco. The conditions noted are these: 0.2 μg/mL competitor peptide. As to the method:
Antibody production and immunoblot analysis. The peptides p44N (MADANMGAGGGQFPDFPS; SEQ ID NO: 2) and p48N ([…]; SEQ ID NO: 3), which correspond respectively to the unique N-termini of the WIPK and the SIPK proteins, were synthesized and conjugated to keyhole limpet hemacyanin (KLH) carrier. Polyclonal antisera were raised in rabbits and purified by affinity column chromatography (Zymed Laboratory, South San Francisco, Calif.).
For immunoblot analysis, 20 μg of total protein per lane were separated on 10% SDS-polyacrylamide gels, and the proteins were transferred to nitrocellulose membranes (Schleicher & Schuell, Inc., Keene, N.H.) by semi-dry electroblotting. […]
The 44-kD kinase activated by TWV in encoded by WIPK. […] The specificity of the Ab-p44N was assessed by immunoblot analysis against a panel of different MAP kinases as described above for Ab-p48N.

We go through five compounds from patent US6765128B1, “Method of using a pathogen-activatable map kinase to enhance disease resistance in plants” (priority 1998, dated 2004).

Consider `O=C(O)c1ccccc1O` [SA, salicylic acid], for which the “Activation of SIPK by treatment” value in the experiment with SIPK is “activated”.

For the compound `C=C1[C@@H](O)[C@@H]2O[C@]3(CC[C@H](/C=C/[C@@H](C)[C@@H]4CC(C)=C[C@@]5(O[C@H](C[C@@](C)(O)C(=O)O)CC[C@H]5O)O4)O3)CC[C@H]2O[C@@H]1[C@@H](O)C[C@H](C)[C@H]1O[C@@]2(CCCCO2)CC[C@H]1C` [okadaic acid], the “Effect of phosphatase inhibitor on inactivation of WIPK by PP-2A1 and YOP” value in experiment [1] is reported as “prevented”. The “Effect of phosphatase inhibitor on inactivation of SIPK by PP-2A1 and YOP” value with 48-kD SIPK was “prevented”.

As to `[Na+].[Na+].[Na+].[O]=[V]([O-])([O-])[O-]` [vanadate, Na3VO4], in experiment [1], the “Effect of phosphatase inhibitor on inactivation of WIPK by PP-2A1 and YOP” value is recorded as “prevented”. The “Effect of phosphatase inhibitor on inactivation of SIPK by PP-2A1 and YOP” value with 48-kD SIPK was “prevented”.

With MADANMGAGGGQFPDFPS [p44N], the “Effect of competitor peptide on binding of Ab-p44N to His-tagged WIPK protein” value with His-tagged WIPK protein is “blocked binding”.

For the compound “MDGSGQQTDTMMSDAGAEQPPTAP [p48N, peptide corresponding to the unique N-terminus of SIPK]”, the “Effect of competitor peptide on binding of Ab-p44N to His-tagged WIPK protein” value with His-tagged WIPK protein is on record as “not”.
